Source: publication PMC8409151, “GT198 Is a Target of Oncology Drugs and Anticancer Herbs” (Frontiers in Oral Health, 2021)
Several values for one entry are separate records, joined by “and”; a condition that tells them apart may be missing. Equal entries are not always repeated. Where two headings read alike, the source gives them in different places. *1 amine or outer side, *2 acyl side, *3 side chain or, on linkers, in order; H or OH if unused. Where a SMILES comes first, the peptide text is derived from it. Bridges are numbered along the chain shown (N, C = ends). Roman numbers before positions name the chains, in order. [ ]: non-standard residue; d: D form. Actinocin(9to1) = Cc1c2oc3c(C)ccc(C(=O)[*:1])c3nc-2c(C(=O)[*:2])c(N)c1=O; NMeV = CN[C@H](C(=O)O)C(C)C; Sar = CNCC(=O)O

Key:
[1] = target: T1, GT198 (Homo sapiens, UniProt Q9P2W1); test: biochemical
T1 sequence (Q9P2W1 1-180): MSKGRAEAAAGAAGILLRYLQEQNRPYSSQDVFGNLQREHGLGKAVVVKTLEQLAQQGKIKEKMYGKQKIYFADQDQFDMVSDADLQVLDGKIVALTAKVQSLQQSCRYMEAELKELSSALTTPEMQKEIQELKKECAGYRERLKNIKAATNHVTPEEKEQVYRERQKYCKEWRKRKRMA
Protocol: (§1) In order to measure GT198 activity in vitro for direct inhibition, a DNA-binding assay was developed in which recombinant GT198 proteins are coated on 96-well plates and assayed for the binding of biotin-labeled DNA in the presence of drug inhibitors. […] N-terminal His-tagged recombinant human GT198 protein without its C-terminus (aa 1–180) were expressed in E. coli BL21 (DE3) pLysS and purified through Ni-NTA-agarose (Qiagen) as previously described [33]. Proteins were eluted by 200 mM imidazole, desalted, concentrated using Amicon YM-10 spin columns, and stored at −80°C before use. Protein concentrations were determined using protein assay dye reagent concentrate solution (Bio-Rad) and 2 mg/ml bovine serum albumin (BSA) standard (Sigma).
(§2) A single-stranded 25-mer biotin-oligonucleotide (Biotin)-[sequence] was used in the assay because it is sufficient to bind one GT198 dimer. […] BSA alone was included as a control for background. No subtraction of background was needed due to very low background. Duplicated wells were used for each experimental point. Each experiment was repeated three times. The GT198-coated plates were blocked with 5% BSA in a solution containing PBS with 0.1% Triton X-100 (TPBS) for 1 h. The binding was carried out for 4 h to overnight at 4°C using 150 nM Biotin-DNA and serial diluted drugs (0.128, 0.64, 3.2, 16, 80, 400, 2,000, 10,000 nM) or herb extracts (0, 0.0384, 0.192, 0.96, 4.8, 24, 120, 600 ng/μl) in the binding buffer (20 mM TrisHCl, pH 7.5, 50 mM NaCl, 75 mM KCl, 0.5 mM MgCl2, 0.05% Triton X-100, 10% glycerol, 1 mM dithiothreitol). After binding, the plates were washed three times with TPBS solution for total 45 min. The plates were then incubated with streptavidin-conjugated HRP (Roche Molecular Biochemicals, #1089153) at 1 U/ml in TPBS for 1 h at 4°C and further washed three times with TPBS for total 30 min. […] Reading of plates was repeated three times within 45 min, and usually the second reading yielded the most consistent results. The finished plates were stained with Bio-Rad protein assay dye reagent to evaluate the bound GT198 protein on the plates.
(§3) The IC50 values were calculated through Kaleidagraph software (Synergy Software) using nonlinear regression sigmoidal dose-response curve fit. The equation for calculation is y = m1 + (m2 – m1)/[1 + (x /m3)^m4], where m1 is the minimum, m2 is the maximum, m3 is the IC50 value calculated by Kaleidagraph, and m4 is the slope at midpoint of the curve. The analysis of Vmax and Km in competitive binding assays were carried out in double-reciprocal plots, using means of four high-concentration data points, omitting points at lower concentrations with reciprocal values off-scale. […] Double-reciprocal plots reveal competitive binding as constant Vmax with increased Km in the presence of drugs or allosteric binding with reduced Vmax and constant Km in the presence of drugs.

[2] = target: T1, GT198; test: In vitro DNA-binding assay of GT198 (biotinylated DNA, chemiluminescence); parameters: Efficacy: dose or concentration left out as unconfirmed; settings: for Activity: NCI Approved Oncology Drug Set VII; for Efficacy: percent of inhibition of drugs; for inhibition at 2 µM: read-out: Efficacy
Protocol: as §1, §2, §3

[3] = target: T1, GT198; parameters: this study used a C-terminal truncated version of GT198 (aa 1–180) to ensure high sensitivity of the assay; His tag (N); made in house; host or cells: E. coli BL21 (DE3) pLysS; method as in doi:10.1101/675579; settings: separate study ref 45; cited from earlier work
[4] = target: T2, GT198 (Hop2), C-terminally truncated (human, UniProt Q9P2W1 1-180, del181-217); test: plate binding assay (immobilized protein, streptavidin-HRP chemiluminescence); EC50; no drug; 20 mM Tris-HCl pH 7.5, 50 mM NaCl, 75 mM KCl, 0.5 mM MgCl2, 0.05% Triton X-100, 10% glycerol, 1 mM DTT; 4 C, 4 h to overnight; 400 ng/well GT198 plus 5 ug BSA; settings: protein: recombinant; tags: N-terminal His; chain copies: 2; label: biotin
T2 sequence: T1 sequence (Q9P2W1 1-180)

[5] = IC50, figures 2, 3, 150 nM DNA, sigmoidal curve fit, ND = not detectable
[6] = Table 1, drugs not measured with IC50 are shown as active or inactive

Question: What does the source list for `O=C1c2c(O)ccc(O)c2C(=O)c2c(NCCNCCO)ccc(NCCNCCO)c21` [Mitoxantrone]?
Answer: IC50 [1]: 187 nM; GT198 inhibition (in words) [2]: almost complete inhibition; IC50 [2, 5]: 187 nM; Activity ([2]; Supplementary Table 1): +; Efficacy ([2]; Supplementary Table 1): 90%; inhibition at 2 µM [2]: 90%

Question: Which results are given for `CC1=C(O)C(=O)C=C2C1=CC=C1[C@@]2(C)CC[C@@]2(C)[C@@H]3C[C@](C)(C(=O)O)CC[C@]3(C)CC[C@]12C` [Celastrol]?
Answer: GT198 inhibition (in words) [2]: positive; IC50 ([2]; IC50): 350 nM; inhibition at 2 µM [2]: 30%

Question: What does the source list for `CC[C@@]1(O)C(=O)OCc2c1cc1n(c2=O)Cc2cc3ccccc3nc2-1` [Camptothecin]?
Answer: IC50 [1]: 2060 nM; GT198 inhibition (in words) [2]: very poor affinities or fail to inhibit GT198; inhibition at 2 µM [2]: 30%

Question: With `CO[C@H]1C[C@@H]2CC[C@@H](C)[C@@](O)(O2)C(=O)C(=O)N2CCCC[C@H]2C(=O)O[C@H]([C@H](C)C[C@@H]2CC[C@@H](O)[C@H](OC)C2)CC(=O)[C@H](C)/C=C(\C)[C@@H](O)[C@@H](OC)C(=O)[C@H](C)C[C@H](C)/C=C/C=C/C=C/1C` [Sirolimus] as the molecule, how does the “GT198 inhibition (in words)” value [2] read?
Answer: The value was “positive inhibitors”.

Question: And the “Efficacy (active or inactive)” value [2, 6]?
Answer: The value was “Active”.

Question: What does the source list for `CC[C@@]1(O)C(=O)OCc2c1cc1n(c2=O)Cc2cc3c(CN(C)C)c(O)ccc3nc2-1` [Topotecan]?
Answer: IC50 [1]: > 2000 nM; GT198 inhibition (in words) [2]: very poor affinities or fail to inhibit GT198; Efficacy ([2]; Supplementary Table 1): 4%; inhibition at 2 µM [2]: 4%

Question: What does the source list for `CC(=O)[C@]1(O)Cc2c(O)c3c(c(O)c2[C@@H](O[C@H]2C[C@H](N)[C@H](O)[C@H](C)O2)C1)C(=O)c1ccccc1C3=O` [Idarubicin]?
Answer: IC50 [1]: 362 nM; IC50 [2, 5]: 362 nM; inhibition at 2 µM [2]: 56%

Question: For `N.N.[Cl][Pt][Cl]` [Cisplatin], which “Efficacy (active or inactive)” value [2, 6] is on record?
Answer: The value was “Inactive”.

Question: For `Cc1c2oc3c(C)ccc(C(=O)N[C@@H]4C(=O)N[C@H](C(C)C)C(=O)N5CCC[C@H]5C(=O)N(C)CC(=O)N(C)[C@@H](C(C)C)C(=O)O[C@@H]4C)c3nc-2c(C(=O)N[C@@H]2C(=O)N[C@H](C(C)C)C(=O)N3CCC[C@H]3C(=O)N(C)CC(=O)N(C)[C@@H](C(C)C)C(=O)O[C@@H]2C)c(N)c1=O` [Dactinomycin] (I: T[dV]P[Sar][NMeV] / II: T[dV]P[Sar][NMeV]; ester I:1-I:C, II:1-II:C; linker I:N-II:N via Actinocin(9to1)), which “Efficacy (active or inactive)” value [2] is on record?
Answer: The value was “Active”.

Question: And the “GT198 inhibition (in words)” value [2]?
Answer: Its value is “positive inhibitors”.

Question: For `O=c1[nH]c(=O)n([C@H]2C[C@H](O)[C@@H](CO)O2)cc1C(F)(F)F` [Trifluridine], which “GT198 inhibition (in words)” value [2] is on record?
Answer: The value was “positive inhibitors”.

Question: And the Activity ([2]; Supplementary Table 1)?
Answer: The Activity was “+”.

Question: And the “Efficacy (active or inactive)” value [2, 6]?
Answer: Its value is “Active”.

Question: With `CN(Cc1cnc2nc(N)nc(N)c2n1)c1ccc(C(=O)N[C@@H](CCC(=O)O)C(=O)O)cc1` [Methotrexate] as the molecule, how does the “GT198 inhibition (in words)” value [2] read?
Answer: The value was “negatives”.

Question: Which “GT198 inhibition (in words)” value [2] does the source give for `N.N.O=C([O-])C1(C(=O)[O-])CCC1.[Pt+2]` [Carboplatin] here?
Answer: The value was “does not inhibit GT198”.

Question: And the IC50 ([2]; Supplementary Table 1)?
Answer: The IC50 was over 2000 nM.

Question: And the Efficacy ([2]; Supplementary Table 1)?
Answer: The Efficacy was 0%.

Question: And the “Efficacy (active or inactive)” value [2, 6]?
Answer: Its value is “Inactive”.

Question: With `CC(=O)O[C@H]1C(=O)[C@@]2(C)[C@H]([C@H](OC(=O)c3ccccc3)[C@]3(O)C[C@H](OC(=O)[C@H](O)[C@@H](NC(=O)c4ccccc4)c4ccccc4)C(C)=C1C3(C)C)[C@]1(OC(C)=O)CO[C@@H]1C[C@@H]2O` [Paclitaxel] as the molecule, how does the IC50 [1] read?
Answer: Its IC50 is 5 nM.

Question: And the “GT198 inhibition (in words)” value [2]?
Answer: Its value is “GT198 inhibitors”.

Question: And the inhibition at 2 µM [2]?
Answer: The inhibition at 2 µM was 32%.

Question: What about the Mode of inhibition [3] of the same molecule?
Answer: Its Mode of inhibition is “allosteric inhibitor or noncompetitive inhibitor”.

Question: For `COc1cccc2c1C(=O)c1c(O)c3c(c(O)c1C2=O)C[C@@](O)(C(=O)CO)C[C@@H]3O[C@H]1C[C@H](N)[C@@H](O)[C@H](C)O1` [Epirubicin], which IC50 ([2]; IC50) is on record?
Answer: The IC50 was 750 nM and 749 nM.

Question: For `CC(C)C[C@H](NC(=O)[C@H](CCc1ccccc1)NC(=O)CN1CCOCC1)C(=O)N[C@@H](Cc1ccccc1)C(=O)N[C@@H](CC(C)C)C(=O)[C@@]1(C)CO1` [Carfilzomib], which “GT198 inhibition (in words)” value [2] is on record?
Answer: The value was “positive inhibitors”.

Question: And the “Efficacy (active or inactive)” value [2, 6]?
Answer: The value was “Active”.

Question: Which results are given for `CCc1c2c(nc3ccc(OC(=O)N4CCC(N5CCCCC5)CC4)cc13)-c1cc3c(c(=O)n1C2)COC(=O)[C@]3(O)CC` [Irinotecan]?
Answer: IC50 [1]: > 2000 nM; GT198 inhibition (in words) [2]: very poor affinities or fail to inhibit GT198; inhibition at 2 µM [2]: 10%

Question: With `CO[C@H]1C(=O)[C@]2(C)[C@@H](OC)C[C@H]3OC[C@@]3(OC(C)=O)[C@H]2[C@H](OC(=O)c2ccccc2)[C@]2(O)C[C@H](OC(=O)[C@H](O)[C@@H](NC(=O)OC(C)(C)C)c3ccccc3)C(C)=C1C2(C)C` [Cabazitaxel] as the molecule, how does the “Efficacy (active or inactive)” value [2, 6] read?
Answer: The value was “Inactive”.

Question: What does the source list for `NCC(=O)CCC(=O)O` [Aminolevulinic acid]?
Answer: GT198 inhibition (in words) [2]: positive inhibitors; Activity ([2]; Supplementary Table 1): +; Efficacy (active or inactive) [2, 6]: Active

Question: With `CC(=O)O[C@@]12CO[C@@H]1C[C@H](O)[C@@]1(C)C(=O)[C@H](O)C3=C(C)[C@@H](OC(=O)[C@H](O)[C@@H](NC(=O)OC(C)(C)C)c4ccccc4)C[C@@](O)([C@@H](OC(=O)c4ccccc4)[C@H]21)C3(C)C` [Docetaxel] as the molecule, how does the “GT198 inhibition (in words)” value [2] read?
Answer: Its value is “GT198 inhibitors”.

Question: And the “Efficacy (active or inactive)” value [2, 6]?
Answer: The value was “Active”.

Question: For `COc1cc([C@@H]2c3cc4c(cc3[C@@H](O[C@@H]3O[C@@H]5CO[C@@H](c6cccs6)O[C@H]5[C@H](O)[C@H]3O)[C@H]3COC(=O)[C@H]23)OCO4)cc(OC)c1O` [Teniposide], which “GT198 inhibition (in words)” value [2] is on record?
Answer: The value was “GT198 inhibitors”.

Question: What about the “Efficacy (active or inactive)” value [2, 6] of the same molecule?
Answer: The value was “Active”.

Question: Which IC50 [1] does the source give for `CCCCC(=O)OCC(=O)[C@]1(O)Cc2c(O)c3c(c(O)c2[C@@H](O[C@H]2C[C@H](NC(=O)C(F)(F)F)[C@H](O)[C@H](C)O2)C1)C(=O)c1c(OC)cccc1C3=O` [Valrubicin] here?
Answer: Its IC50 is 973 nM.

Question: What about the IC50 [2, 5] of the same molecule?
Answer: Its IC50 is 973 nM.

Question: What about the inhibition at 2 µM [2] of the same molecule?
Answer: The inhibition at 2 µM was 26%.

Question: For `CCN(CC)CCNC(=O)c1c(C)[nH]c(/C=C2\C(=O)Nc3ccc(F)cc32)c1C` [Sunitinib], which “GT198 inhibition (in words)” value [2] is on record?
Answer: Its value is “positive inhibitors”.

Question: What about the Activity ([2]; Supplementary Table 1) of the same molecule?
Answer: The Activity was “+”.

Question: What about the “Efficacy (active or inactive)” value [2, 6] of the same molecule?
Answer: The value was “Active”.

Question: For `COc1cc([C@@H]2c3cc4c(cc3[C@@H](O[C@@H]3O[C@@H]5CO[C@@H](C)O[C@H]5[C@H](O)[C@H]3O)[C@H]3COC(=O)[C@H]23)OCO4)cc(OC)c1O` [Etoposide], which IC50 [1] is on record?
Answer: Its IC50 is 24 nM.

Question: And the “GT198 inhibition (in words)” value [2]?
Answer: Its value is “GT198 inhibitors”.

Question: What about the IC50 [2, 5] of the same molecule?
Answer: Its IC50 is 24.2 nM.

Question: And the inhibition at 2 µM [2]?
Answer: The inhibition at 2 µM was 42%.

Question: With `COc1cccc2c1C(=O)c1c(O)c3c(c(O)c1C2=O)C[C@@](O)(C(C)=O)C[C@@H]3O[C@H]1C[C@H](N)[C@H](O)[C@H](C)O1` [Daunorubicin] as the molecule, how does the IC50 [1] read?
Answer: The IC50 was 149 nM.

Question: And the IC50 [2, 5]?
Answer: Its IC50 is 150 nM.

Question: And the inhibition at 2 µM [2]?
Answer: Its inhibition at 2 µM is 48%.

Question: With `CC[C@]1(O)C[C@H]2CN(CCc3c([nH]c4ccccc34)[C@@](C(=O)OC)(c3cc4c(cc3OC)N(C=O)[C@H]3[C@@](O)(C(=O)OC)[C@H](OC(C)=O)[C@]5(CC)C=CCN6CC[C@]43[C@@H]65)C2)C1` [Vincristine] as the molecule, how does the “GT198 inhibition (in words)” value [2] read?
Answer: The value was “negatives”.

Question: What about the “Efficacy (active or inactive)” value [2, 6] of the same molecule?
Answer: The value was “Inactive”.

B1: biotin 25-mer ssDNA (ssDNA)
DNA: CCTGGGGTTGCTGAGGTCCTGGCAG
modifications: biotin before the first printed base (5')
Question: For B1, which “apparent K (half saturation)” value [4] is on record?
Answer: Its value is 43 nM.
